Where a name gives a salt, the structure may show the parent alone.

Results on 13 compounds are retold here after patent publication US8236808B2, “Pyrazine derivatives as ENAC blockers” (Novartis AG, priority 2008, dated 2012).

This assay addresses T1, epithelial sodium channel (ENaC) (Homo sapiens, UniProt P37088+P51168+P51170).
T1 construct: host or cells: primary human bronchial epithelial cells (HBECs), differentiated at the air-liquid interface
T1 sequence (P37088 1-669): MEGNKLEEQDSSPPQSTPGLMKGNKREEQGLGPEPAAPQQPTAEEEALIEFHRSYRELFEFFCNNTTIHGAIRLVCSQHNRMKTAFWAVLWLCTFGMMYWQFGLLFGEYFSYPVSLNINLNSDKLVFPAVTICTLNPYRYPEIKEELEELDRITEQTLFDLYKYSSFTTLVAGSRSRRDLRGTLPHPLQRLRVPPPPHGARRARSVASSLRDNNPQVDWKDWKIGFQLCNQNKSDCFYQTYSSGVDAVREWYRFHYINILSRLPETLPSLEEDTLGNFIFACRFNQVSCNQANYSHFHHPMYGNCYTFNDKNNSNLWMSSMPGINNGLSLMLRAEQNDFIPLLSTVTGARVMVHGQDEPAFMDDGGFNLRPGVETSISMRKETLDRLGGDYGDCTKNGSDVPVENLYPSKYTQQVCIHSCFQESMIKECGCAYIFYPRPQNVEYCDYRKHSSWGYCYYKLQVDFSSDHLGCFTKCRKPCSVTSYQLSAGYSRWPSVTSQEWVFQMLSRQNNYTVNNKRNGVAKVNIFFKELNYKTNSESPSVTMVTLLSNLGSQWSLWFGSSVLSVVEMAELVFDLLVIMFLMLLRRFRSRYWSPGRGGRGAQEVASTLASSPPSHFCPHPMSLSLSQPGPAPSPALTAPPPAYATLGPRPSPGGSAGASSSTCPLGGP
T1 sequence (P51168 1-640): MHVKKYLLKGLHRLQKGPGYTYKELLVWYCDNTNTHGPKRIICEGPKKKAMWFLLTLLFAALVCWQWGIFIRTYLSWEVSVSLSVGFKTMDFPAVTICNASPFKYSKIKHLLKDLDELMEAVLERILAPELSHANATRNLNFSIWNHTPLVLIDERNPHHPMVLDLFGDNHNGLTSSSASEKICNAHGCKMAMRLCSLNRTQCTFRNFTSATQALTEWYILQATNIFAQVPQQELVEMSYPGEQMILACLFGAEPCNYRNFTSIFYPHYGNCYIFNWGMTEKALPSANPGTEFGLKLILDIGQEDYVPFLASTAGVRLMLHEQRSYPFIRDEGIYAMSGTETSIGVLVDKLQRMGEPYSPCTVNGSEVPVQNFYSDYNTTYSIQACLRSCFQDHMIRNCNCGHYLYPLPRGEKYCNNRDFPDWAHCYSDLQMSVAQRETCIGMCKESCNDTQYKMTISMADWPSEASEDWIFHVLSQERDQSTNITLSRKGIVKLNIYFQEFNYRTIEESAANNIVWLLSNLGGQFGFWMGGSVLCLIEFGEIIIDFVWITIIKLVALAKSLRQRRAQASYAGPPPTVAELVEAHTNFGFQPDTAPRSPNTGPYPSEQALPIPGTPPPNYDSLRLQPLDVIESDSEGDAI
T1 sequence (P51170 1-649): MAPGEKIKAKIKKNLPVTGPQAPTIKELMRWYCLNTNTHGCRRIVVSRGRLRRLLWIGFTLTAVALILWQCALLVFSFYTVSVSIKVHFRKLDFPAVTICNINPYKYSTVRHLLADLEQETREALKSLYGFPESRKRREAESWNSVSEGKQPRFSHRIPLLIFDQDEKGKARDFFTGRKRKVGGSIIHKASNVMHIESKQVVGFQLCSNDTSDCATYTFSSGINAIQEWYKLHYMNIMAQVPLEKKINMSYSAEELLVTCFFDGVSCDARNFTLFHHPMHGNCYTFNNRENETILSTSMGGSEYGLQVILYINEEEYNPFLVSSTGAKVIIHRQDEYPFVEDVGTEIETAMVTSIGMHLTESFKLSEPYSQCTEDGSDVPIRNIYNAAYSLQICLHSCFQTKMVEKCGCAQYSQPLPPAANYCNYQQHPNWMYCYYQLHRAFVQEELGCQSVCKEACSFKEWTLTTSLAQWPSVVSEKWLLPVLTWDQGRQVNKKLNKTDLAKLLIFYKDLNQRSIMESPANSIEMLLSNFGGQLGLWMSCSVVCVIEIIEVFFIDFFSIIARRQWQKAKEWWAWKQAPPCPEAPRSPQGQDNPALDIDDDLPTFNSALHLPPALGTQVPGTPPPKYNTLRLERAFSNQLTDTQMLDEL
The experiment in a line: Short circuit current (ISC) measurements in human bronchial epithelial cells, inhibition of amiloride-sensitive ISC. In kind it is cell-based. The note with it: inhibition of the amiloride-sensitive ISC; HBECs cultured at air-liquid interface, Ussing chamber, compound added to apical chamber. As to the method: Compounds of formula (I), hereinafter referred to alternatively as “agents of the invention”, are useful as pharmaceuticals. In particular, the compounds have good ENaC blocker activity and may be tested in the following assays.
Human Bronchial Epithelial cells (HBECs) (Cambrex) were cultured under air-liquid interface conditions to provide a well differentiated mucociliary phenotype.
HBECs were cultured using a modification of the method described by Gray and colleagues (Gray et al., 1996). Cells were seeded in plastic T-162 flasks and were grown in bronchial epithelial cell growth medium (BEGM; Cambrex) supplemented with bovine pituitary extract (52 μg/mL), hydrocortisone (0.5 μg/mL), human recombinant epidermal growth factor (0.5 ng/mL), epinephrine (0.5 μg/mL), transferrin (10 μg/mL), insulin (5 μg/mL), retinoic acid (0.1 μg/mL), triiodothyronine ([…]), gentamycin (50 μg/mL) and amphotericin B (50 ng/mL). Medium was changed every 48 hours until cells were 90% confluent. Cells were then passaged and seeded (8.25×10^5 cells/insert) on polycarbonate Snapwell inserts (Costar) in differentiation media containing 50% DMEM in BEGM with the same supplements as above but without triiodothyronine and a final retinoic acid concentration of 50 nM (all-trans retinoic acid). Cells were maintained submerged for the first 7 days in culture, after which time they were exposed to an apical air interface for the remainder of the culture period. At this time, media was changed to DMEM:F12 media containing 2% v/v Ultroser G for the remainder of culture. Amphotericin B was removed from all media 3 feeds prior to use in the Ussing Chambers. Cells were used between days 7 and 21 after establishment of the apical-air interface. At all stages of culture, cells were maintained at 37° C. in 5% CO2 in an air incubator.
Snapwell inserts were mounted in Vertical Diffusion Chambers (Costar) and were bathed with continuously gassed Ringer solution (5% CO2 in O2; pH 7.4) maintained at 37° C. containing (in mM): 120 NaCl, 25 NaHCO3, 3.3 KH2PO4, 0.8 K2HPO4, 1.2 CaCl2, 1.2 MgCl2, and 10 glucose. The solution osmolarity was between 280 and 300 mOsmol/kg H2O for all physiological salt solutions used. Cells were voltage clamped to 0 mV (model EVC4000; WPI). RT was measured by applying a 1- or 2-mV pulse at 30-s intervals and calculating RT by Ohm's law. Data were recorded using a PowerLab workstation (ADInstruments).
Test compounds were prepared as a 10 mM stock solution in DMSO (95%). Serial 3-fold dilutions were freshly prepared in an appropriate vehicle (distilled H2O or Ringers solution). The initial concentration was added to the apical chamber as a 1000× concentrate in 5 μL, resulting in a final 1× concentration the 5 mL volume of the Ussing chamber. Subsequent additions of compound were added in a 3.3 μL volume of the 1000× serially diluted stock solution. At the completion of the concentration-response experiment, amiloride (10 μM) was added into the apical chamber to enable the total amiloride-sensitive current to be measured. An amiloride control IC50 was established at the start of each experiment.
Results are expressed as the mean % inhibition of the amiloride-sensitive ISC. Concentration-response curves were plotted and IC50 values generated using GraphPad Prism 3.02. Cell inserts were typically run in duplicate and the IC50 calculated on the mean % inhibition data.
For `CCC[N+](CCCc1ccc(OC)cc1)(CCCc1ccc(OC)cc1)CCNC(=O)c1nc(Cl)c(N)nc1N` [Example 21, {2-[(3,5-Diamino-6-chloro-pyrazine-2-carbonyl)-amino]-ethyl}-bis-[3-(4-methoxy-phenyl)-propyl]-propyl-ammonium trifluoroacetate], the IC50 turned out to be 5690 nM.

As for `COc1ccc(CCC[N+](CCCc2ccc(OC)cc2)(CCNC(=O)c2nc(Cl)c(N)nc2N)CC(N)=O)cc1` [Example 22, Carbamoylmethyl-{2-[(3,5-diamino-6-chloro-pyrazine-2-carbonyl)-amino]-ethyl}-bis-[3-(4-methoxy-phenyl)-propyl]-ammonium trifluoroacetate], the IC50 is 51 nM.

Regarding `COc1ccc(CCC[N+](CCCc2ccc(OC)cc2)(CCNC(=O)c2nc(Cl)c(N)nc2N)Cc2ccccc2)cc1` [Example 23, Benzyl-{2-[(3,5-diamino-6-chloro-pyrazine-2-carbonyl)-amino]-ethyl}-bis-[3-(4-methoxy-phenyl)-propyl]-ammonium trifluoroacetate], the IC50 amounted to 34 nM.

With `CCOc1ccc(NC(=O)NCCCC[N+](C)(CCCc2ccc(OC)cc2)CCNC(=O)c2nc(Cl)c(N)nc2N)cc1Cl` (stereo not shown) [Example 26, {4-[3-(3-Chloro-4-ethoxy-phenyl)-ureido]-butyl}-{2-[(3,5-diamino-6-chloro-pyrazine-2-carbonyl)-amino]-ethyl}-[3-(4-methoxy-phenyl)-propyl]-methyl-ammonium bromide], the concentration for half-maximal inhibition (IC50) worked out at 12 nM.

As for `COc1ccc(CCC[N+](C)(C)CCNC(=O)c2nc(Cl)c(N)nc2N)cc1` [Example 27, {2-[(3,5-diamino-6-chloro-pyrazine-2-carbonyl)-amino]-ethyl}-[3-(4-methoxy-phenyl)-propyl]-dimethyl-ammonium bromide], half-maximal inhibition (IC50) was put at 220 nM.

The compound `C[N+](C)(CCCc1ccc(OCCCc2ccc(OC[C@@H](O)CO)cc2)cc1)CCNC(=O)c1nc(Cl)c(N)nc1N` [Example 29, {2-[(3,5-Diamino-6-chloro-pyrazine-2-carbonyl)-amino]-ethyl}-[3-(4-{3-[4-((S)-2,3-dihydroxy-propoxy)-phenyl]-propoxy}-phenyl)-propyl]-dimethyl-ammonium bromide] showed a concentration for half-maximal inhibition (IC50) of 25 nM.

On to `C[N+](C)(CCNC(=O)CCc1ccccc1)CCNC(=O)c1nc(Cl)c(N)nc1N` [Example 30, {2-[(3,5-Diamino-6-chloro-pyrazine-2-carbonyl)-amino]-ethyl}-dimethyl-2-[(3-phenyl-propionylamino)-ethyl]-ammonium hexafluorophosphate], for which the IC50 worked out at 140 nM.

Compound `C[N+](C)(CCNC(=O)CCc1ccc(Cl)cc1)CCNC(=O)c1nc(Cl)c(N)nc1N` [Example 33, {2-[3-(4-Chloro-phenyl)-propionylamino]-ethyl}-{2-[(3,5-diamino-6-chloro-pyrazine-2-carbonyl)-amino]-ethyl}-dimethyl-ammonium hexafluorophosphate] showed a 50% inhibitory concentration (IC50) of 150 nM.

`COc1ccc2c(c1)CCCC2CC(=O)NCC[N+](C)(C)CCNC(=O)c1nc(Cl)c(N)nc1N` (stereo not shown) [Example 35, {2-[(3,5-Diamino-6-chloro-pyrazine-2-carbonyl)-amino]ethyl}-{2-[2-(6-methoxy-1,2,3,4-tetrahydro-naphthalen-1-yl)-acetylamino]-ethyl}-dimethyl-ammonium hexafluorophosphate] showed a concentration for half-maximal inhibition (IC50) of 410 nM.

In turn, `C[N+](C)(CCNC(=O)CCc1ccc(F)cc1)CCNC(=O)c1nc(Cl)c(N)nc1N` [Example 38, {2-[(3,5-Diamino-6-chloro-pyrazine-2-carbonyl)-amino]-ethyl}-{2-[3-(4-fluoro-phenyl)-propionylamino]-ethyl}-dimethyl-ammonium hexafluorophosphate] returned an IC50 of 810 nM.

With `C[N+](C)(CCCNC(=O)Cc1ccc(OCc2ccccc2)cc1)CCNC(=O)c1nc(Cl)c(N)nc1N` [Example 50, {3-[2-(4-Benzyloxy-phenyl)-acetylamino]-propyl}-{2-[(3,5-diamino-6-chloro-pyrazine-2-carbonyl)-amino]-ethyl}-dimethyl-ammonium bromide], the IC50 came out at 240 nM.

Regarding `C[N+](C)(CCCNC(=O)Cc1ccc(Cl)cc1)CCNC(=O)c1nc(Cl)c(N)nc1N` [Example 51, {3-[2-(4-Chloro-phenyl)-acetylamino]-propyl}-{2-[(3,5-diamino-6-chloro-pyrazine-2-carbonyl)-amino]-ethyl}-dimethyl-ammonium hexafluorophosphate], the IC50 stood at 420 nM.

With `C[N+](C)(CCCNC(=O)Cc1ccccc1)CCNC(=O)c1nc(Cl)c(N)nc1N` [Example 53, {2-[(3,5-Diamino-6-chloro-pyrazine-2-carbonyl)-amino]-ethyl}-dimethyl-(3-phenylacetylamino-propyl)-ammonium hexafluorophosphate], the concentration for half-maximal inhibition (IC50) is 600 nM.
